In ChEMBL document CHEMBL1201862, “PubChem BioAssay data set” (2004):
Active and inactive are the calls of the source. Unless noted, the rule behind the calls is not given here.

Experiments:
[1] = target: T1, Short transient receptor potential channel 4 (Mus musculus, UniProt Q9QUQ5); test: SAR Analysis for the identification of selective inhibits of the transient receptor potential cation channel C4 (TRPC4): Automated Electrophysiology_2. [Related pubchem assays (depositor defined):AID2256]; type: functional
T1 sequence (Q9QUQ5 whole entry): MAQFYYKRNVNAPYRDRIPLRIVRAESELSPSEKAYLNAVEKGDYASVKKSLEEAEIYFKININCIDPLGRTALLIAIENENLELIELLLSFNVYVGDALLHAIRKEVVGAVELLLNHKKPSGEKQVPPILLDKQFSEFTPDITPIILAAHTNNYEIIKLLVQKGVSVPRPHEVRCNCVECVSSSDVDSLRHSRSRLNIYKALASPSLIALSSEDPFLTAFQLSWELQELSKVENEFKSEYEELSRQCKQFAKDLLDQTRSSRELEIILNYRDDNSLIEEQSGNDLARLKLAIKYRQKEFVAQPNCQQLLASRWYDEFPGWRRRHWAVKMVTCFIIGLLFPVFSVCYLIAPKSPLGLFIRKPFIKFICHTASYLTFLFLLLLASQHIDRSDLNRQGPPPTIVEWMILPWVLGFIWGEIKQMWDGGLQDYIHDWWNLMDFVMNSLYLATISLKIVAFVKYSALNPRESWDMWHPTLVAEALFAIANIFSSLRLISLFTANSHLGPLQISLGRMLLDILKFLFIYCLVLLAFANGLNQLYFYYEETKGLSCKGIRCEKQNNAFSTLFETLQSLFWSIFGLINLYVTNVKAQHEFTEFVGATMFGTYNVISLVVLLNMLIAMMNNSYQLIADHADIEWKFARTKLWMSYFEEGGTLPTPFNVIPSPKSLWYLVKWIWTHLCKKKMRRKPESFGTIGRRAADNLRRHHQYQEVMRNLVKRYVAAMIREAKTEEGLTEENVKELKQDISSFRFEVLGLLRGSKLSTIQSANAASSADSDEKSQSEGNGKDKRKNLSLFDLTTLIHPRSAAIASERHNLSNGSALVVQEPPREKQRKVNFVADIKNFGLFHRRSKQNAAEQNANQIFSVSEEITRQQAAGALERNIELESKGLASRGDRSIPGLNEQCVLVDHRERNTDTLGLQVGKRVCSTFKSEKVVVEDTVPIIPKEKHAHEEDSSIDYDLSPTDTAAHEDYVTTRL

[2] = target: T1, Short transient receptor potential channel 4; test: TRPC4 inhibitor concentration-response, dose response, cell-based, HEK293 TRPC4/mu-opioid, DAMGO stimulus, Fluo-4 (AID 492994); type: functional
[3] = target: T1, Short transient receptor potential channel 4; test: TRPC4 inhibition under acetylcholine activation, SAR follow-up, cell-based, acetylcholine stimulus, HEK293 TRPC4, Fluo-4 (AID 492996); type: functional
[4] = target: Short transient receptor potential channel 6 (Mus musculus, UniProt Q61143); test: TRPC6 inhibition potency of TRPC4 inhibitor analogs, dose response, selectivity assay for selective TRPC4 inhibitor project, HEK293 cells, membrane potential dye, IC50 (AID 492987); type: functional, cell-based
Jurkat = test: SAR Analysis of small molecule inhibitors of T-cell specific antigen receptor-induced NF-kB activation in a Jurkat cell line using a luminescence assay - Set 2. [Related pubchem assays (depositor defined):AID435003, AID435012, AID465]; type: functional, cell-based; conditions: Homo sapiens
Streptococcus = test: Group A Streptococcus viability loss, dose response, counter-screen for streptokinase expression inhibitor project, luminescence, BacTiterGlo (AID 1915); type: functional, organism-based;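 also: potency for reduction of bacterial viability or growth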
[5] = system: Streptococcus sp. 'group A'; test: growth inhibition of control SK(-) GAS strain, dose response, counter-screen for streptokinase expression inhibitor project, luminescence, kanamycin, BacTiterGlo, confirmation (AID 1900); type: functional, organism-based
Streptokinase A = target: T2, Streptokinase A (Streptococcus pyogenes serotype M1, UniProt P10520); test: S. pyogenes streptokinase expression inhibitors, potency, dose response, plasminogen activation absorbance, OD405 (AID 1914); type: functional, Streptococcus pyogenes M1 GAS;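 also: secreted streptokinase activity via plasminogen activation per viability signal from cell pellet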
T2 sequence (P10520 whole entry): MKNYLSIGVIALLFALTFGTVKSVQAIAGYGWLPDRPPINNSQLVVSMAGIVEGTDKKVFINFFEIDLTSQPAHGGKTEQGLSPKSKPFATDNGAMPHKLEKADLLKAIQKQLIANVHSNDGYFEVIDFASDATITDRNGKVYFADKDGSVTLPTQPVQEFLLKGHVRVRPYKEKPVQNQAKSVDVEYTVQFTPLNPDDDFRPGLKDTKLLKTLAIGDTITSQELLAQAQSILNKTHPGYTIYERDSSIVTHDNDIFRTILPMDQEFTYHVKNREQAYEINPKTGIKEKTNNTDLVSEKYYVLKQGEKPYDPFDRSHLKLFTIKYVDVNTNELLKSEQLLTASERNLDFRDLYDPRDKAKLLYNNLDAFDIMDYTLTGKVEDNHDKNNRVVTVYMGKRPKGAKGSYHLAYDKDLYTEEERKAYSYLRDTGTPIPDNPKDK

[6] = HEp-2 cell cytotoxicity, dose response, cytotoxicity control for RSV inhibitor project, HTS (AID 2410); type: functional; conditions: human respiratory syncytial virus
HEK293 [7] = test: SAR Analysis of small molecule inhibitors of T-cell specific antigen receptor-induced NF-kB activation in a HEK-293T cell line using a luminescence assay - Set 2. [Related pubchem assays (depositor defined):AID435003, AID435012, AID489026]; type: functional, cell-based; conditions: Homo sapiens
HEK293 [8] = test: cytotoxicity in HEK293T NF-kB-Luc cells, SAR follow-up, cytotoxicity control for NF-kB activator project, cell-based, resazurin fluorescence (AID 493251); type: functional; conditions: Homo sapiens
[9] = A Cell Based Secondary Assay To Explore Cytotoxicity of Compounds that Sensitize Mycobacterium Tuberculosis to Beta-Lactam Antibiotics.; type: functional
Hexokinase HKDC1 = target: T3, Hexokinase HKDC1 (Homo sapiens, UniProt Q2TB90); test: SAR analysis of small molecule inhibitors of hexokinase domain containing I (HKDC1). [Related pubchem assays (depositor defined):AID493160, AID493190]; type: functional
T3 sequence (Q2TB90 whole entry): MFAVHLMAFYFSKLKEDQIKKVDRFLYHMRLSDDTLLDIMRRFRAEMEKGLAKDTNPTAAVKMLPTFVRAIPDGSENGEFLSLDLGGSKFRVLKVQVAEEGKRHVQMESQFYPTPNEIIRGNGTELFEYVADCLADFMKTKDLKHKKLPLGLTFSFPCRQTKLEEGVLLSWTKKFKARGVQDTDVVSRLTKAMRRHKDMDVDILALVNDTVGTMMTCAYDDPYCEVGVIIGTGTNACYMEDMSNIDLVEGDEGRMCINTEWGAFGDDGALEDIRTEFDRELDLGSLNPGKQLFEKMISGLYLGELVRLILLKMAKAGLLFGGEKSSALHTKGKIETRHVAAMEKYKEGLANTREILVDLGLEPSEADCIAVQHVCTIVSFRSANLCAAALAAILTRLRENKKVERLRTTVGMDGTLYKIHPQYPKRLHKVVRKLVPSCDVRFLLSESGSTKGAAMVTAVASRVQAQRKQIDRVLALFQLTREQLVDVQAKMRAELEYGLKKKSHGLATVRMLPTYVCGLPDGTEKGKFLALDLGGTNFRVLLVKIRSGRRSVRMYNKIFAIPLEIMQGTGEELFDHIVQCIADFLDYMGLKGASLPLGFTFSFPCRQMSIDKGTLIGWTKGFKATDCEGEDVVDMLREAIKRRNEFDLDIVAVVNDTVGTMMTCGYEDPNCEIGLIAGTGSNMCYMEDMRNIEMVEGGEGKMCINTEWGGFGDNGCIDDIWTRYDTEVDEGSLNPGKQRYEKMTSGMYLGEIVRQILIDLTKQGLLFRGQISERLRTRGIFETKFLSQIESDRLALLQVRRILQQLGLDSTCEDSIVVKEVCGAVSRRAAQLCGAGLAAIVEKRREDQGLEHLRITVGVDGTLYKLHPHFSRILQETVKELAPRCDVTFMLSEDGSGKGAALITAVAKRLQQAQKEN

Hexokinase-1 = Hexokinase-1 (Homo sapiens, UniProt P19367); test: SAR analysis of small molecule inhibitors of hexokinase domain containing I (HKDC1) in the hexokinase 1 selectivity assay. [Related pubchem assays (depositor defined):AID493160, AID493190]; type: functional
H4 [10] = test: Amyloid Precursor 5' UTR neuroblastoma cell reporter line Measured in Cell-Based System Using Plate Reader - 2078-04_Inhibitor_Dose_DryPowder_Activity. [Related pubchem assays (depositor defined):AID488894]; type: functional; conditions: Homo sapiens
H4 [11] = test: Inhibitors of Prion Protein 5' UTR mRNA Measured in Cell-Based System Using Plate Reader - 2078-01_Inhibitor_Dose_DryPowder_Activity. [Related pubchem assays (depositor defined):AID488894]; type: functional; conditions: Homo sapiens
H4 [12] = test: inhibitors of control reporter signal in H4 cells – cell-based, plate reader, dry powder samples, counter-screen for prion reporter project, dose response (AID 540255); type: functional; conditions: Homo sapiens
[13] = target: Luciferin 4-monooxygenase (Photinus pyralis, UniProt P08659); test: firefly luciferase enzyme inhibitors, dose response, biochemical, dry powder samples, plate reader (AID 588451)
Sequence of Luciferin 4-monooxygenase (P08659 whole entry): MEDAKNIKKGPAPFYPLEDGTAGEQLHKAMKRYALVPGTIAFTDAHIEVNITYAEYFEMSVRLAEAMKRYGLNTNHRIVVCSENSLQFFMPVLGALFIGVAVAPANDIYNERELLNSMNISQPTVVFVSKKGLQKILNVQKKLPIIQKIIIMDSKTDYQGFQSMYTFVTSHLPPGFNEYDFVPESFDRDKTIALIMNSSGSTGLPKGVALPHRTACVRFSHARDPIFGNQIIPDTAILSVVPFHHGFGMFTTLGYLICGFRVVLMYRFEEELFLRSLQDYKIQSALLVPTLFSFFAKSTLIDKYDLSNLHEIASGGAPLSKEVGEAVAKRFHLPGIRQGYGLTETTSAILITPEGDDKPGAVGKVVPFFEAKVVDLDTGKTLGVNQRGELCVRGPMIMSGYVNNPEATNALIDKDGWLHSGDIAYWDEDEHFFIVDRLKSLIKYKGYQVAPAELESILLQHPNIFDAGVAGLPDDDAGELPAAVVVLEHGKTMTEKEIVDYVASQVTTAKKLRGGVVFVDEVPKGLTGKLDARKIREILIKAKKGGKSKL

Sequence of Short transient receptor potential channel 6 (Q61143 whole entry): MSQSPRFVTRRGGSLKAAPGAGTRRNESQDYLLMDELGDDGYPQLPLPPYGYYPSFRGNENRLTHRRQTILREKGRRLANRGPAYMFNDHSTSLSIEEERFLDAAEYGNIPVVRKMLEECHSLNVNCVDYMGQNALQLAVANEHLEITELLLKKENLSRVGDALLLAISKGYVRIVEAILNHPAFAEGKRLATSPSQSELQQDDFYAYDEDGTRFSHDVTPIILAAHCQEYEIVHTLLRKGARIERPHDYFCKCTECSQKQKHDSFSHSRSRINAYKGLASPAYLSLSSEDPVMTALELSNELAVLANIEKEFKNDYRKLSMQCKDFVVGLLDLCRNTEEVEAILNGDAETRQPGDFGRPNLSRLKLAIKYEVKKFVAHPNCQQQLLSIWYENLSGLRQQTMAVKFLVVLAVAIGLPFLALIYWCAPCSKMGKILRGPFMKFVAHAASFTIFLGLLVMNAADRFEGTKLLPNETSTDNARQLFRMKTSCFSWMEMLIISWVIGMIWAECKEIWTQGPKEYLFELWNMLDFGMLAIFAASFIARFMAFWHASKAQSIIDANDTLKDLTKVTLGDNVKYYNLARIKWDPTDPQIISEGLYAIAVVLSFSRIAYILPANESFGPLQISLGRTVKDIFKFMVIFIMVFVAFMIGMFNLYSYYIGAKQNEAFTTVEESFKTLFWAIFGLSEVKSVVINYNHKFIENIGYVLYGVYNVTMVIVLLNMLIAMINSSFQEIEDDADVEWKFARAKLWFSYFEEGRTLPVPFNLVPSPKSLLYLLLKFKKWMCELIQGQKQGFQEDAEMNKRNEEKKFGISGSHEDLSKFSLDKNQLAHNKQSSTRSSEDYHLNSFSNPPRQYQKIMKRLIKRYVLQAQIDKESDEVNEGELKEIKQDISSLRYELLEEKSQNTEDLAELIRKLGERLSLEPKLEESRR
Sequence of Hexokinase-1 (P19367 whole entry, the tested form may be a part): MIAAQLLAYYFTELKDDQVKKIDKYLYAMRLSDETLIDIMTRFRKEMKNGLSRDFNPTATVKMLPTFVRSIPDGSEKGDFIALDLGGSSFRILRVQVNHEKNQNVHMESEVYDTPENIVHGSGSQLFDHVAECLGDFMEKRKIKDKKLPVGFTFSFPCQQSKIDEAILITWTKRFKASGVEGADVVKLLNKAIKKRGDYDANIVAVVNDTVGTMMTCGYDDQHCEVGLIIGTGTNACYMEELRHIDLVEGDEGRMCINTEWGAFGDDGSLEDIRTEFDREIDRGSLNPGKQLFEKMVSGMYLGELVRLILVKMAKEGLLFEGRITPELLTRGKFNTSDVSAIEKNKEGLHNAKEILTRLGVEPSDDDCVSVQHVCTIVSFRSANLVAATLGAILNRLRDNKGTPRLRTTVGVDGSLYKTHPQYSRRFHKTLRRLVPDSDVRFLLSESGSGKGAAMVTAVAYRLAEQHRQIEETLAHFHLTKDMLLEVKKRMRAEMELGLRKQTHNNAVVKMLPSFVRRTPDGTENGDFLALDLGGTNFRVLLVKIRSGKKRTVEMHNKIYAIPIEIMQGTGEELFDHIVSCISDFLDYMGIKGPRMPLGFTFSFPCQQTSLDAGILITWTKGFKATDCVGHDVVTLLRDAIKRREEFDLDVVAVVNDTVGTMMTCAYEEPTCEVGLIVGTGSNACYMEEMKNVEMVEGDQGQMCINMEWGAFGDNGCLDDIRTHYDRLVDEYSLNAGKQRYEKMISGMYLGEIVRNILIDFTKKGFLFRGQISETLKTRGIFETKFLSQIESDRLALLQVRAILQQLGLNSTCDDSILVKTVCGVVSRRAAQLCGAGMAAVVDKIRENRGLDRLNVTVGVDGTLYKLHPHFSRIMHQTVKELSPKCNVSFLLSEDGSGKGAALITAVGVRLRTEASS

Question: For `Cc1cc(N2CCCCCC2)nc2ccccc12`, which IC50 [1] is on record?
Answer: 1.96 µM (active)

Question: And the IC50 [2]?
Answer: 1.5 µM (active)

Question: What about the IC50 [3] of the same compound?
Answer: 9.55 µM (active)

Question: And the IC50 [4]?
Answer: 9.74 µM (active)

Question: With `Cc1cc(NC(=O)c2ccc3c(c2)OCCO3)ccc1NC(=O)c1cc2ccccc2o1` as the compound, how does the IC50 (Jurkat) read?
Answer: 38.6 µM (inactive)

Question: What about the EC50 (Streptococcus) of the same compound?
Answer: 14.9 µM (active)

Question: What about the EC50 [5] of the same compound?
Answer: 14 µM (active)

Question: And the EC50 (Streptokinase A)?
Answer: > 150 µM (not active)

Question: What about the CC50 [6] of the same compound?
Answer: 18.2 µM (active)

Question: And the IC50 (HEK293 [7])?
Answer: 8.84 µM (active)

Question: What about the IC50 (cells) of the same compound?
Answer: 7.55 µM (active)

Question: And the IC50 (HEK293 [8])?
Answer: 8.04 µM (active)

Question: What about the CC50 [9] of the same compound?
Answer: > 40 µM (active)

Question: Which results are given for `Cc1ccc(S(=O)(=O)Nc2cc(SCC(=O)O)c(O)c3ccccc23)cc1[N+](=O)[O-]`?
Answer: IC50 (Hexokinase HKDC1): 11.4 µM (active); IC50 (Hexokinase-1): 59.8 µM (inactive)

Question: Which results are given for `CC1CCCCN1c1ncnc2c1cnn2-c1ccc(Cl)cc1` (centres undefined)?
Answer: AC50 (H4 [10]): 0.00838 µM (active); AC50 (H4 [11]): 0.018 µM (active); AC50 (H4 [12]): 0.074 µM (active); AC50 [13]: 4.19 µM (active)
